# In patent publication US20250115571A1, “OXOPIPERAZINE DERIVATIVES” (Inthera Bioscience AG, priority 2017, published 2025):
# Legend:
# CT-26 cells = assay: Cell-derived syngeneic mouse model for colorectal carcinoma combined with anti-PD1 antibodies; assay type: in vivo; settings: ten mice per group
# Description: The cells were inoculated subcutaneously into the left flank of 60 mice. […] Body weights were measured daily until treatment start, then twice weekly. Tumor burden was assessed twice weekly by caliper measurement. The study was terminated four weeks post first dosing.
# [1] = system: p53 protein and p53 lysine 382 acetylation in CaSki cells; assay: P53 protein reactivation in HPV16-positive cervical cancer cells (Western blot); assay type: cell-based, human; settings: 72 h
# Description: HPV16-positive cervical cancer cells CaSki were subcultured as described in EXAMPLE 1, seeded at a density of 20′000 cells/cm^2; and readily treated with Compound 258 for 72 hrs. For western blot analysis, cells were removed from the cell culture vessels by trypsinization, washed twice with PBS (Sigma-Aldrich), lysed with a RIPA-buffer/Protease inhibitor cocktail (Sigma-Aldrich) by shaking on ice for 30 minutes followed by sonication on ice, 20 minutes centrifugation at 16′000×g, 4° C. Lysates were mixed 1:1 with 4× Lammli Buffer (Bio-Rad) prior to loading onto a Mini-PROTEAN TGX precast 4-20% PAGE gel (Bio-Rad). Gels were run for 1 hour at 110V. Gel were transferred to a Trans-Blot Turbo Mini PVDF membrane (Bio-Rad) using a Bio-Rad Trans-Blot Turbo System according to manufacturer's instructions. Equal amounts of cells were used, and the total transferred protein visualized on a Bio-Rad ChemiDoc Touch Imager prior to incubation with the primary antibody. […] Specific antibody binding was detected with the SuperSignal West Femto Maximum Sensitivity Substrate (ThermoFisher) and visualized using a Bio-Rad ChemiDoc Touch Imager.
# [2] = system: SiHa human HPV16-positive cervical cancer cells; assay: Cell-derived xenograft mouse model for cervical cancer (SiHa CDX); assay type: in vivo; settings: for Tumor Size day 37: SiHa CDX, female BALB/c nude mice, Mean ± SEM; for T/C: day 37, tumor-to-control ratio (volume/volume)
# Description: Female BALB/c nude mice (7-9 weeks of age) were injected with SiHa human HPV16-positive (Human Papillomavirus type 16) cervical cancer cells. The cells were inoculated subcutaneously into the left flank of 48 mice. When tumors reached a mean volume of approximately 111 mm^3, mice were randomly assigned to eight treatment groups of each six mice (TABLE 18). Body weights were measured three times weekly prior to the initiation of dosing and daily thereafter. Tumor burden was assessed by caliper measurement twice weekly. Dosing breaks were applied when tolerability issues arose (body weight loss>10%). The study was terminated four weeks post first dosing. The experiment was performed in the Crown Bioscience Ltd. (Beijing) testing facility (Ground Floor, Light Muller Building, Changping Sector of Zhongguancun Scientific Park, No. 21 Huoju Road, Changping District, Beijing, CHIN).
# [3] = 1 mg/kg, BID, p.o., listed as Compound 258
# [4] = 3 mg/kg, BID/QD (p.o. BID, QD from treatment day 7 on)
smiles,measurement,setting,value
"CC(C)C[C@@H]1NCCN([C@@H](CC(C)C)C(=O)N2CCC3(C[C@@H]2C)OCC(CN2CCCC2)CO3)C1=O (stereo partly drawn) [Compound 258, (3S)-1-[(2S)-4-methyl-1-oxo-1-[(3s,6s,8S)-8-methyl-3-(pyrrolidin-1-ylmethyl)-1,5-dioxa-9-azaspiro[5.5]undec-an-9-yl]pentan-2-yl]-3-(2-methylpropyl)piper-azin-2-one (^≠), isomer Z]",mice alive,"CT-26 cells; day 21, 1 mg/kg p.o. QD + Anti-PD1 10 mg/kg i.p. BIW",10
same,mice alive,"CT-26 cells; day 21, 1 mg/kg p.o. QD alone",10
same,mice alive,"CT-26 cells; day 21, 3 mg/kg p.o. QD + Anti-PD1 10 mg/kg i.p. BIW",10
same,mice alive,"CT-26 cells; day 21, 3 mg/kg p.o. QD alone",10
same,mice alive,"CT-26 cells; day 23, 1 mg/kg p.o. QD + Anti-PD1 10 mg/kg i.p. BIW",10
same,mice alive,"CT-26 cells; day 23, 1 mg/kg p.o. QD alone",10
same,mice alive,"CT-26 cells; day 23, 3 mg/kg p.o. QD + Anti-PD1 10 mg/kg i.p. BIW",10
same,mice alive,"CT-26 cells; day 23, 3 mg/kg p.o. QD alone",8
same,mice alive,"CT-26 cells; day 25, 1 mg/kg p.o. QD + Anti-PD1 10 mg/kg i.p. BIW",10
same,mice alive,"CT-26 cells; day 25, 1 mg/kg p.o. QD alone",5
same,mice alive,"CT-26 cells; day 25, 3 mg/kg p.o. QD + Anti-PD1 10 mg/kg i.p. BIW",10
same,mice alive,"CT-26 cells; day 25, 3 mg/kg p.o. QD alone",6
same,mice alive,"CT-26 cells; day 28, 1 mg/kg p.o. QD + Anti-PD1 10 mg/kg i.p. BIW",7
same,mice alive,"CT-26 cells; day 28, 1 mg/kg p.o. QD alone",2
same,mice alive,"CT-26 cells; day 28, 3 mg/kg p.o. QD + Anti-PD1 10 mg/kg i.p. BIW",9
same,mice alive,"CT-26 cells; day 28, 3 mg/kg p.o. QD alone",2
same,mice alive,"CT-26 cells; day 30, 1 mg/kg p.o. QD + Anti-PD1 10 mg/kg i.p. BIW",6
same,mice alive,"CT-26 cells; day 30, 1 mg/kg p.o. QD alone",1
same,mice alive,"CT-26 cells; day 30, 3 mg/kg p.o. QD + Anti-PD1 10 mg/kg i.p. BIW",8
same,mice alive,"CT-26 cells; day 30, 3 mg/kg p.o. QD alone",0
same,mice alive,"CT-26 cells; day 32, 1 mg/kg p.o. QD + Anti-PD1 10 mg/kg i.p. BIW",4
same,mice alive,"CT-26 cells; day 32, 1 mg/kg p.o. QD alone",0
same,mice alive,"CT-26 cells; day 32, 3 mg/kg p.o. QD + Anti-PD1 10 mg/kg i.p. BIW",4
same,mice alive,"CT-26 cells; day 32, 3 mg/kg p.o. QD alone",0
same,mice alive,"CT-26 cells; day 34, 1 mg/kg p.o. QD + Anti-PD1 10 mg/kg i.p. BIW",4
same,mice alive,"CT-26 cells; day 34, 1 mg/kg p.o. QD alone",0
same,mice alive,"CT-26 cells; day 34, 3 mg/kg p.o. QD + Anti-PD1 10 mg/kg i.p. BIW",4
same,mice alive,"CT-26 cells; day 34, 3 mg/kg p.o. QD alone",0
same,mice alive,"CT-26 cells; day 36, 1 mg/kg p.o. QD + Anti-PD1 10 mg/kg i.p. BIW",4(*)
same,mice alive,"CT-26 cells; day 36, 1 mg/kg p.o. QD alone",0
same,mice alive,"CT-26 cells; day 36, 3 mg/kg p.o. QD + Anti-PD1 10 mg/kg i.p. BIW",4(*)
same,mice alive,"CT-26 cells; day 36, 3 mg/kg p.o. QD alone",0
same,concentration at which acetylation of p53 lysine 382 is detectable,[1],20 nM
same,concentration at which induction of p53 protein above baseline is evident,[1],7 nM
same,Tumor Size day 37,[2]; [3],296 ± 27 mm^3
same,T/C,[2]; [3],31.6%
same,Tumor Size day 37,[2]; [4],104 ± 30 mm^3
same,T/C,[2]; [4],11.1%
